Converted amounts (≈) assume the structure as drawn.
How the values were obtained:
Candida albicans [1] = experiment: Antifungal activity against Candida albicans SANK 51486; format: functional
Candida albicans [2] = experiment: Antifungal activity against fluconazole-resistant Candida albicans TIMM3164; format: functional
Nakaseomyces glabratus = experiment: Antifungal activity against Candida glabrata ATCC 90030; format: functional
Candida tropicalis = experiment: Antifungal activity against Candida tropicalis ATCC 750; format: functional
Cryptococcus neoformans = experiment: Antifungal activity against Cryptococcus neoformans TIMM 1855; format: functional
Aspergillus fumigatus [3] = experiment: Antifungal activity against Aspergillus fumigatus SANK 10569; format: functional
Aspergillus flavus = experiment: Antifungal activity against Aspergillus flavus SANK 18497; format: functional
Candida albicans [4] = experiment: Antifungal activity against Candida albicans ATCC 24433; format: functional
Candida albicans [5] = experiment: Antifungal activity against Candida albicans ATCC 64550; format: functional
Candida parapsilosis = experiment: Antifungal activity against Candida parapsilosis ATCC 90018; format: functional; conditions: Lodderomyces parapsilosis
Pichia kudriavzevii = experiment: Antifungal activity against Candida krusei ATCC 6258; format: functional
Aspergillus fumigatus [6] = experiment: Antifungal activity against Aspergillus fumigatus ATCC 26430; format: functional
[7] = Chemical stability assessed as half life in HCl; format: physicochemical
[8] = Bioavailability in rat at 20 mg/kg, po; format: ADME, organism-based; conditions: in vivo

## C[C@@H](S[C@H]1CO[C@H](c2ccc(C(=O)N3CCN(c4ccccc4)CC3)cc2)OC1)[C@](O)(Cn1cncn1)c1ccc(F)cc1F
Candida albicans [1]
  MIC: 0.016 µg/mL (≈ 0.0252 µM)
Candida albicans [2]
  MIC: 0.125 µg/mL (≈ 0.197 µM)
Nakaseomyces glabratus
  MIC: 2 µg/mL (≈ 3.15 µM)
Candida tropicalis
  MIC: 0.5 µg/mL (≈ 0.786 µM)
Cryptococcus neoformans
  MIC: 0.016 µg/mL (≈ 0.0252 µM)
Aspergillus fumigatus [3]
  MIC: 1 µg/mL (≈ 1.57 µM)
Aspergillus flavus
  MIC: 2 µg/mL (≈ 3.15 µM)

## C[C@@H](S[C@H]1CO[C@H](/C=C/C=C/c2ccc(F)cc2)OC1)[C@](O)(Cn1cncn1)c1ccc(F)cc1F
Candida albicans [1]
  MIC: ≤ 0.008 µg/mL
Candida albicans [2]
  MIC: 0.063 µg/mL (≈ 0.122 µM)
Nakaseomyces glabratus
  MIC: 1 µg/mL (≈ 1.93 µM)
Candida tropicalis
  MIC: 0.25 µg/mL (≈ 0.483 µM)
Cryptococcus neoformans
  MIC: 0.016 µg/mL (≈ 0.0309 µM)
Aspergillus fumigatus [3]
  MIC: 0.063 µg/mL (≈ 0.122 µM)
Aspergillus flavus
  MIC: 0.25 µg/mL (≈ 0.483 µM)

## C[C@@H](S[C@H]1CO[C@H](c2ccc(C(=O)Nc3ccc(F)cc3)cc2)OC1)[C@](O)(Cn1cncn1)c1ccc(F)cc1F
Candida albicans [1]
  MIC: ≤ 0.008 µg/mL
Candida albicans [2]
  MIC: 0.016 µg/mL (≈ 0.0274 µM)
Nakaseomyces glabratus
  MIC: 2 µg/mL (≈ 3.42 µM)
Candida tropicalis
  MIC: 0.016 µg/mL (≈ 0.0274 µM)
Cryptococcus neoformans
  MIC: 0.031 µg/mL (≈ 0.053 µM)
Aspergillus fumigatus [3]
  MIC: 0.125 µg/mL (≈ 0.214 µM)
Aspergillus flavus
  MIC: 0.25 µg/mL (≈ 0.428 µM)

## C[C@@H](S[C@H]1CO[C@H](/C=C/C(=O)Nc2ccc(F)cc2)OC1)[C@](O)(Cn1cncn1)c1ccc(F)cc1F
Candida albicans [1]
  MIC: < 0.008 µg/mL
Candida albicans [2]
  MIC: 0.125 µg/mL (≈ 0.234 µM)
Nakaseomyces glabratus
  MIC: 4 µg/mL (≈ 7.48 µM)
Candida tropicalis
  MIC: 0.125 µg/mL (≈ 0.234 µM)
Cryptococcus neoformans
  MIC: 0.125 µg/mL (≈ 0.234 µM)
Aspergillus fumigatus [3]
  MIC: 0.5 µg/mL (≈ 0.935 µM)
Aspergillus flavus
  MIC: 4 µg/mL (≈ 7.48 µM)

## C[C@@H](S[C@H]1CO[C@H](c2ccc(C(=O)Nc3ccc(C#N)cc3)cc2)OC1)[C@](O)(Cn1cncn1)c1ccc(F)cc1F
Candida albicans [1]
  MIC: ≤ 0.008 µg/mL
Candida albicans [2]
  MIC: ≤ 0.008 µg/mL
Nakaseomyces glabratus
  MIC: 2 µg/mL (≈ 3.38 µM)
Candida tropicalis
  MIC: 0.016 µg/mL (≈ 0.027 µM)
Cryptococcus neoformans
  MIC: 0.031 µg/mL (≈ 0.0524 µM)
Aspergillus fumigatus [3]
  MIC: 0.031 µg/mL (≈ 0.0524 µM)
Aspergillus flavus
  MIC: 0.125 µg/mL (≈ 0.211 µM)
Candida albicans [4]
  MIC: ≤ 0.008 µg/mL
Candida albicans [5]
  MIC: 0.25 µg/mL (≈ 0.423 µM)
Candida parapsilosis
  MIC: ≤ 0.008 µg/mL
Pichia kudriavzevii
  MIC: 0.063 µg/mL (≈ 0.106 µM)
Aspergillus fumigatus [6]
  MIC: 0.031 µg/mL (≈ 0.0524 µM)
[7]
  half-life: 2.67 h
[8]
  bioavailability: 31.7%

## C[C@@H](S[C@H]1CO[C@H](c2cccc(C(=O)Nc3ccc(C#N)cc3)c2)OC1)[C@](O)(Cn1cncn1)c1ccc(F)cc1F
Candida albicans [1]
  MIC: ≤ 0.008 µg/mL
Candida albicans [2]
  MIC: 0.25 µg/mL (≈ 0.423 µM)
Nakaseomyces glabratus
  MIC: 2 µg/mL (≈ 3.38 µM)
Candida tropicalis
  MIC: 1 µg/mL (≈ 1.69 µM)
Cryptococcus neoformans
  MIC: 1 µg/mL (≈ 1.69 µM)
Aspergillus fumigatus [3]
  MIC: 2 µg/mL (≈ 3.38 µM)
Aspergillus flavus
  MIC: > 4 µg/mL

## C[C@@H](S[C@H]1CO[C@H](c2ccc(C(=O)Nc3ccc(C#N)c(Cl)c3)cc2)OC1)[C@](O)(Cn1cncn1)c1ccc(F)cc1F
Candida albicans [1]
  MIC: ≤ 0.008 µg/mL
Candida albicans [2]
  MIC: 0.016 µg/mL (≈ 0.0256 µM)
Nakaseomyces glabratus
  MIC: 1 µg/mL (≈ 1.6 µM)
Candida tropicalis
  MIC: 0.063 µg/mL (≈ 0.101 µM)
Cryptococcus neoformans
  MIC: 0.031 µg/mL (≈ 0.0495 µM)
Aspergillus fumigatus [3]
  MIC: 0.125 µg/mL (≈ 0.2 µM)
Aspergillus flavus
  MIC: 0.25 µg/mL (≈ 0.399 µM)

## C[C@@H](S[C@H]1CO[C@H](c2ccc(C(=O)Nc3ccc(Cl)cc3)cc2)OC1)[C@](O)(Cn1cncn1)c1ccc(F)cc1F
Candida albicans [1]
  MIC: ≤ 0.008 µg/mL
Candida albicans [2]
  MIC: ≤ 0.008 µg/mL
Nakaseomyces glabratus
  MIC: > 4 µg/mL
Candida tropicalis
  MIC: 0.016 µg/mL (≈ 0.0266 µM)
Cryptococcus neoformans
  MIC: 0.016 µg/mL (≈ 0.0266 µM)
Aspergillus fumigatus [3]
  MIC: 0.063 µg/mL (≈ 0.105 µM)
Aspergillus flavus
  MIC: 0.125 µg/mL (≈ 0.208 µM)

## C[C@@H](S[C@H]1CO[C@H](c2ccc(C(=O)Nc3ccc(OCC(F)(F)C(F)F)cc3)cc2)OC1)[C@](O)(Cn1cncn1)c1ccc(F)cc1F
Candida albicans [1]
  MIC: 0.016 µg/mL (≈ 0.023 µM)
Candida albicans [2]
  MIC: 0.031 µg/mL (≈ 0.0445 µM)
Nakaseomyces glabratus
  MIC: > 4 µg/mL
Candida tropicalis
  MIC: 0.125 µg/mL (≈ 0.179 µM)
Cryptococcus neoformans
  MIC: 0.063 µg/mL (≈ 0.0904 µM)
Aspergillus fumigatus [3]
  MIC: 0.125 µg/mL (≈ 0.179 µM)
Aspergillus flavus
  MIC: 0.5 µg/mL (≈ 0.718 µM)

## CCC(C)n1ncn(-c2ccc(N3CCN(c4ccc(OCC5COC(Cn6cncn6)(c6ccc(Cl)cc6Cl)O5)cc4)CC3)cc2)c1=O (stereo not drawn) [ITRACONAZOLE]
Candida albicans [1]
  MIC: 0.031 µg/mL (≈ 0.0439 µM)
Candida albicans [2]
  MIC: 0.25 µg/mL (≈ 0.354 µM)
Nakaseomyces glabratus
  MIC: 1 µg/mL (≈ 1.42 µM)
Candida tropicalis
  MIC: 0.5 µg/mL (≈ 0.709 µM)
Cryptococcus neoformans
  MIC: 0.25 µg/mL (≈ 0.354 µM)
Aspergillus fumigatus [3]
  MIC: 0.25 µg/mL (≈ 0.354 µM)
Aspergillus flavus
  MIC: 0.5 µg/mL (≈ 0.709 µM)
Candida albicans [4]
  MIC: 0.125 µg/mL (≈ 0.177 µM)
Candida albicans [5]
  MIC: 1 µg/mL (≈ 1.42 µM)
Candida parapsilosis
  MIC: 0.125 µg/mL (≈ 0.177 µM)
Pichia kudriavzevii
  MIC: 0.5 µg/mL (≈ 0.709 µM)
Aspergillus fumigatus [6]
  MIC: 0.25 µg/mL (≈ 0.354 µM)

## OC(Cn1cncn1)(Cn1cncn1)c1ccc(F)cc1F [FLUCONAZOLE]
Candida albicans [1]
  MIC: 0.25 µg/mL (≈ 0.816 µM)
Candida albicans [2]
  MIC: > 4 µg/mL
Nakaseomyces glabratus
  MIC: > 4 µg/mL
Candida tropicalis
  MIC: 2 µg/mL (≈ 6.53 µM)
Cryptococcus neoformans
  MIC: > 4 µg/mL
Aspergillus fumigatus [3]
  MIC: > 4 µg/mL
Aspergillus flavus
  MIC: > 4 µg/mL
Candida albicans [4]
  MIC: 0.5 µg/mL (≈ 1.63 µM)
Candida albicans [5]
  MIC: > 4 µg/mL
Candida parapsilosis
  MIC: 0.5 µg/mL (≈ 1.63 µM)
Pichia kudriavzevii
  MIC: > 4 µg/mL
Aspergillus fumigatus [6]
  MIC: > 4 µg/mL

## C[C@@H](S[C@H]1CO[C@H](c2ccc3cc(C(=O)Nc4ccc(C#N)cc4)ccc3c2)OC1)[C@](O)(Cn1cncn1)c1ccc(F)cc1F
Candida albicans [1]
  MIC: ≤ 0.008 µg/mL
Candida albicans [2]
  MIC: 0.031 µg/mL (≈ 0.0483 µM)
Nakaseomyces glabratus
  MIC: > 4 µg/mL
Candida tropicalis
  MIC: 0.016 µg/mL (≈ 0.0249 µM)
Cryptococcus neoformans
  MIC: 0.063 µg/mL (≈ 0.0982 µM)
Aspergillus fumigatus [3]
  MIC: 0.063 µg/mL (≈ 0.0982 µM)
Aspergillus flavus
  MIC: 0.25 µg/mL (≈ 0.39 µM)

## C[C@@H](S[C@H]1CO[C@H](c2ccc(C(=O)Nc3ccc(C#N)c(C#N)c3)cc2)OC1)[C@](O)(Cn1cncn1)c1ccc(F)cc1F
Candida albicans [1]
  MIC: ≤ 0.008 µg/mL
Candida albicans [2]
  MIC: 0.016 µg/mL (≈ 0.0259 µM)
Nakaseomyces glabratus
  MIC: > 4 µg/mL
Candida tropicalis
  MIC: 0.031 µg/mL (≈ 0.0503 µM)
Cryptococcus neoformans
  MIC: 0.063 µg/mL (≈ 0.102 µM)
Aspergillus fumigatus [3]
  MIC: 0.25 µg/mL (≈ 0.405 µM)
Aspergillus flavus
  MIC: 0.5 µg/mL (≈ 0.811 µM)

From ChEMBL document CHEMBL1153358, “Amide analogs of antifungal dioxane-triazole derivatives: synthesis and in vitro activities” (Bioorg Med Chem Lett, 2009)
